Measured values as given in US10563263B2, “Genetic polymorphisms associated with statin response and cardiovascular diseases, methods of detection and uses thereof” (CELERA CORPORATION, priority 2010, dated 2020).

Tested on: CVD (CHD or stroke)
Assay: CARE: SNP by pravastatin treatment interaction, logistic regression (synergy index), CVD endpoint
Assay type: in vivo, human
Settings: CARE
Excerpt: CARE was a secondary prevention trial and WOSCOPS was a primary prevention trial.
The CHD endpoint was defined in the analyses herein of CARE as a composite endpoint of fatal CHD, definite non-fatal MI, or revascularization, and was defined in the analyses herein of WOSCOPS as a composite endpoint of death from CHD, nonfatal MI, or revascularization. In both the CARE and WOSCOPS analyses herein, the CVD endpoint was defined as a composite endpoint of CHD or stroke. […] Revascularization, which can include percutaneous transluminal coronary angioplasty (PTCA), stent placement, and coronary artery bypass graft (CABG), are medical interventions that indicate the presence of CHD.
Cohort and case-only study designs were used to identify SNPs associated with response to statin treatment.
For each SNP, a logistic regression model having treatment status as the dependent variable and SNP as the independent predictor variable was performed, with terms for age, sex and race included in the model as covariates. The anti-log of the regression coefficient corresponding to the SNP is an estimate of the synergy index (SI) (Davis et al., “Imputing gene-treatment interactions when the genotype distribution is unknown using case-only and putative placebo analyses-a new method for the Genetics of Hypertension Associated Treatment (GenHAT) study”, Statistics in Medicine 23: (2004), pages 2413-2427). The SI is a ratio of odds ratios: for example in the CARE and WOSCOPS studies, the SI represents the factor by which the odds-ratio of statin treatment, compared with placebo, among major homozygous individuals is multiplied by in order to obtain the odds-ratio of treatment vs. placebo among heterozygous individuals; and multiplied by a second time to obtain the odds-ratio of treatment vs. placebo in minor homozygous individuals. […] In a randomized clinical trial, genotype and treatment are independent by design.

CC[C@H](C)C(=O)O[C@H]1C[C@H](O)C=C2C=C[C@H](C)[C@H](CC[C@@H](O)C[C@@H](O)CC(=O)O)[C@H]21 [Pravastatin, pravastatin]
OR (synergy index, SNP x pravastatin treatment interaction) (rs152707 allele A, model ADD, Imputed): 0.684 | OR (synergy index, SNP x pravastatin treatment interaction) (rs152712 allele C, model ADD, Genotyped): 0.6783 | OR (SNP x pravastatin interaction) (rs208026 allele A, DOM model, Genotyped): 1.457 | OR (SNP x pravastatin interaction) (rs208029 allele T, DOM model, Imputed): 1.41 | OR (SNP x pravastatin interaction) (rs208757 allele G, DOM model, Imputed): 1.423 | OR (SNP x pravastatin interaction) (rs229775 allele A, REC model, Imputed): 0.3933 | OR (SNP x pravastatin interaction) (rs229815 allele T, REC model, Imputed): 0.4053 | OR (SNP x pravastatin interaction) (rs229829 allele C, REC model, Imputed): 0.5066 | OR (SNP x pravastatin interaction) (rs229831 allele A, REC model, Imputed): 0.3945 | OR (SNP x pravastatin interaction) (rs238252 allele G, ADD model, Imputed): 1.66 | OR (SNP x pravastatin interaction) (rs238252 allele G, DOM model, Imputed): 1.848 | OR (synergy index, SNP x pravastatin treatment interaction) (rs1444741 allele A, model DOM, Imputed): 0.6595 | OR (synergy index, SNP x pravastatin treatment interaction) (rs1449916 allele C, model DOM, Imputed): 0.5892 | OR (synergy index, SNP x pravastatin treatment interaction) (rs1459523 allele A, model ADD, Imputed): 1.366 | OR (synergy index, SNP x pravastatin treatment interaction) (rs1476714 allele A, model DOM, Imputed): 0.6618 | OR (synergy index, SNP x pravastatin treatment interaction) (rs1486723 allele C, model REC, Imputed): 0.4458 | OR (synergy index, SNP x pravastatin treatment interaction) (rs1495375 allele A, model ADD, Imputed): 0.741 | OR (synergy index, SNP x pravastatin treatment interaction) (rs1495375 allele A, model DOM, Imputed): 0.6085 | OR (synergy index, SNP x pravastatin treatment interaction) (rs1495381 allele T, model REC, Imputed): 1.776 | OR (synergy index, SNP x pravastatin treatment interaction) (rs1498061 allele C, model ADD, Imputed): 0.4939 | OR (synergy index, SNP x pravastatin treatment interaction) (rs1498992 allele G, model DOM, Imputed): 0.5981 | OR (synergy index, SNP x pravastatin treatment interaction) (rs1499001 allele T, model DOM, Imputed): 0.5667 | OR (synergy index, SNP x pravastatin treatment interaction) (rs1512988 allele A, model ADD, Imputed): 0.7274 | OR (synergy index, SNP x pravastatin treatment interaction) (rs1512988 allele A, model DOM, Imputed): 0.6077 | OR (synergy index, SNP x pravastatin treatment interaction) (rs1512989 allele T, model ADD, Imputed): 0.7274 | OR (synergy index, SNP x pravastatin treatment interaction) (rs1512989 allele T, model DOM, Imputed): 0.6077 | OR (synergy index, SNP x pravastatin treatment interaction) (rs1512991 allele T, model ADD, Imputed): 0.7286 | OR (synergy index, SNP x pravastatin treatment interaction) (rs1512991 allele T, model DOM, Imputed): 0.6184 | OR (synergy index, SNP x pravastatin treatment interaction) (rs1524306 allele C, model ADD, Imputed): 1.366 | OR (synergy index, SNP x pravastatin treatment interaction) (rs1524310 allele G, model ADD, Imputed): 1.366 | OR (synergy index, SNP x pravastatin treatment interaction) (rs1527059 allele A, model DOM, Imputed): 0.5689 | OR (synergy index, SNP x pravastatin treatment interaction) (rs1535866 allele G, model DOM, Imputed): 1.391 | OR (synergy index, SNP x pravastatin treatment interaction) (rs1567740 allele T, model ADD, Imputed): 0.7274 | OR (synergy index, SNP x pravastatin treatment interaction) (rs1567740 allele T, model DOM, Imputed): 0.6032 | OR (synergy index, SNP x pravastatin treatment interaction) (rs1572573 allele A, model DOM, Imputed): 1.748 | OR (synergy index, SNP x pravastatin treatment interaction) (rs1577497 allele C, model REC, Imputed): 0.4912 | OR (synergy index, SNP x pravastatin treatment interaction) (rs1581514 allele T, model ADD, Imputed): 1.353 | OR (synergy index, SNP x pravastatin treatment interaction) (rs1582321 allele T, model DOM, Imputed): 0.5814 | OR (synergy index, SNP x pravastatin treatment interaction) (rs1582322 allele A, model DOM, Imputed): 0.5859 | OR (synergy index, SNP x pravastatin treatment interaction) (rs1582323 allele A, model DOM, Imputed): 0.5825 | OR (synergy index, SNP x pravastatin treatment interaction) (rs1592485 allele C, model DOM, Imputed): 0.5835 | OR (synergy index, SNP x pravastatin treatment interaction) (rs1600954 allele T, model ADD, Imputed): 1.379 | OR (synergy index, SNP x pravastatin treatment interaction) (rs1705261 allele A, model REC, Imputed): 1.775 | OR (synergy index, SNP x pravastatin treatment interaction) (rs1832222 allele G, model DOM, Imputed): 1.612 | OR (synergy index, SNP x pravastatin treatment interaction) (rs1861327 allele G, model DOM, Imputed): 0.5814 | OR (synergy index, SNP x pravastatin treatment interaction) (rs1868581 allele G, model ADD, Imputed): 1.366 | OR (synergy index, SNP x pravastatin treatment interaction) (rs1874313 allele A, model ADD, Imputed): 0.7419 | OR (synergy index, SNP x pravastatin treatment interaction) (rs1874313 allele A, model DOM, Imputed): 0.615 | OR (SNP x pravastatin interaction) (rs1876409 allele C, DOM model, Imputed): 0.6151 | OR (SNP x pravastatin interaction) (rs1913201 allele G, ADD model, Imputed): 0.7218 | OR (SNP x pravastatin interaction) (rs1913201 allele G, DOM model, Imputed): 0.6464 | OR (SNP x pravastatin interaction) (rs1936871 allele G, DOM model, Genotyped): 0.571 | OR (SNP x pravastatin interaction) (rs1961157 allele T, REC model, Imputed): 0.6068 | OR (SNP x pravastatin interaction) (rs1987179 allele T, ADD model, Imputed): 0.7138 | OR (SNP x pravastatin interaction) (rs1987179 allele T, DOM model, Imputed): 0.6634 | OR (SNP x pravastatin interaction) (rs1990023 allele T, DOM model, Imputed): 0.6462 | OR (SNP x pravastatin interaction) (rs1995025 allele C, DOM model, Imputed): 1.608 | OR (SNP x pravastatin interaction) (rs2016194 allele G, DOM model, Imputed): 0.6626 | OR (SNP x pravastatin interaction) (rs2023651 allele T, ADD model, Imputed): 0.682 | OR (SNP x pravastatin interaction) (rs2024902 allele A, ADD model, Imputed): 1.998 | OR (SNP x pravastatin interaction) (rs2024902 allele A, DOM model, Imputed): 2.076 | OR (SNP x pravastatin interaction) (rs2025107 allele A, DOM model, Imputed): 1.856 | OR (SNP x pravastatin interaction) (rs2025108 allele T, DOM model, Imputed): 1.856 | OR (SNP x pravastatin interaction) (rs2052428 allele C, DOM model, Imputed): 0.5903 | OR (SNP x pravastatin interaction) (rs2053230 allele C, ADD model, Imputed): 0.5414 | OR (SNP x pravastatin interaction) (rs2062448 allele T, DOM model, Imputed): 0.5462 | OR (SNP x pravastatin interaction) (rs2063420 allele C, REC model, Imputed): 1.755 | OR (SNP x pravastatin interaction) (rs2063591 allele C, ADD model, Imputed): 0.7519 | OR (SNP x pravastatin interaction) (rs2063591 allele C, DOM model, Imputed): 0.6237 | OR (SNP x pravastatin interaction) (rs2095586 allele A, DOM model, Imputed): 1.655 | OR (SNP x pravastatin interaction) (rs2095606 allele A, DOM model, Imputed): 0.5466 | OR (SNP x pravastatin interaction) (rs2102374 allele A, ADD model, Imputed): 0.6269 | OR (SNP x pravastatin interaction) (rs2102374 allele A, DOM model, Imputed): 0.5989 | OR (SNP x pravastatin interaction) (rs2108426 allele C, DOM model, Imputed): 0.6626 | OR (SNP x pravastatin interaction) (rs2110664 allele A, DOM model, Imputed): 1.429
